Reference: patent US20090005403A1, “Alkinyl-Oxypyrimidines Used in the Form of Pesticides” (priority 2005, published 2009)

Columns and labels:
[1] = logP determination by HPLC on reversed-phase column (EEC Directive 79/831 annex V.A8); type: physicochemical
Experimental: Calibration was carried out using unbranched alkan-2-ones (having 3 to 16 carbon atoms) with known logP values (determination of logP values by the retention times using linear interpolation between two successive alkanone).

[2] = test system: green peach aphid (Myzus persicae); assay: Myzus test (MYZUPE spray treatment); type: in vivo; conditions: 500 g/ha, spray treatment of Chinese cabbage disks, 100% = all aphids killed
Experimental: Myzus Test (MYZUPE Spray Treatment)
To produce a suitable preparation of active compound, 1 part by weight of active compound is mixed with the stated amounts of solvents and emulsifier, and the concentrate is diluted with emulsifier-containing water to the desired concentration.
Disks of Chinese cabbage (Brassica pekinensis) which are infested by all stages of green peach aphid (Myzus persicae) are sprayed with a preparation of active compound of the desired concentration.
(§1) After the desired period of time, the effect in % is determined. 100% means that all aphids have been killed; 0% means that none of the aphids have been killed.

[3] = test system: cotton aphid (Aphis gossypii); assay: Aphis gossypii test (APHIGO); type: in vivo; conditions: 100 ppm, cotton leaves dipped, 100% = all aphids killed
Experimental: Aphis Gossypii Test (APHIGO)
To produce a suitable preparation of active compound, 1 part by weight of active compound is mixed with the stated amounts of solvent and emulsifier, and the concentrate is diluted with emulsifier-containing water to the desired concentration.
Cotton leaves (Gossypium hirsutum) which are heavily infested by the cotton aphid (Aphis gossypii) are treated by being dipped into the preparation of active compound of the desired concentration.
After the desired period of time, the kill in % is determined. 100% means that all aphids have been killed; 0% means that none of the aphids have been killed.

Myzus persicae = Myzus persicae (MYZUPE U); type: in vivo; conditions: 30 ppm, ingestion, 100% = all aphids killed
Experimental: Myzus Persicae (MYZUPE U)
To produce a suitable preparation of active compound, the active compound is mixed with the stated amounts of solvent, and the concentrate is diluted with stained water to the desired concentration.
The Myzus persicae are provided with a preparation of active compound of the desired concentration for ingestion.
as §1

[4] = reversed-phase C18 HPLC column, HPLC, reversed-phase C 18, 43° C., acidic range (pH 2.3), marked a)
[5] = reversed-phase HPLC column, in the preparation example, pH range not marked

CC#CCOc1cc(-c2cscc2C)ncn1 [Example 25]
chromatographic logP [1, 4]: 3.26 | effect in % (% 5 d) [2]: 80% | kill in % (% 6 d) [3]: 80%

CC#CCOc1cc(-n2ccnc2)ncn1 [Example 12]
effect in % (% 6-7 d) (Myzus persicae): 100% | chromatographic logP [1, 4]: 1

CC#CCOc1cc(-c2ccsc2)ncn1 [Example 1, 4-(2-butyn-1-yl-oxy)-6-(3-thienyl)-pyrimidine]
chromatographic logP [1, 5]: 2.84

CC#CCOc1cc(-n2cccn2)ncn1 [Example 8]
chromatographic logP [1, 4]: 2.55 | effect in % (% 5 d) [2]: 90%

CC#CCOc1cc(-n2cc(Cl)cn2)ncn1 [Example 2, 4-butynyloxy-6-(4-chloropyrazol-1-yl)pyrimidine]
chromatographic logP [1, 5]: 3.65

CC#CCOc1cc(-c2ccccn2)ncn1 [Example 3]
chromatographic logP [1, 4]: 2.31 | effect in % (% 5 d) [2]: 80%

Clc1cc(-c2ccsc2)ncn1 [II-1, 4-chloro-6-(3-thienyl)pyrimidine]
chromatographic logP [1, 5]: 2.31

CC#CCOc1cc(-c2cccs2)ncn1 [Example 6]
chromatographic logP [1, 4]: 2.95 | effect in % (% 5 d) [2]: 90%
